Measurements reported in patent US6355799B1, “Substituted benzene compounds, process for their preparation, and herbicidal and defoliant compositions containing them” (ISK Americas Incorporated, priority 1997, dated 2002).
Where two headings read alike, the source gives them in different places.

Assays:
Assay type in all cases: in vivo
[1] = tested on: redroot pigweed (Amaranthus retroflexus, AMARE); assay: Pre-emerge test, greenhouse herbicide activity screening; conditions: Amaranthus retroflexus, pre-emergence, 336 h, read-out: Pre-emerge Herbicidal Activity AMARE
Outline: (§1)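 Sandy loam pots; pre-emerge: sown 1 d pre-spray, surface-watered after, then bottom-watered. Post-emerge: sown 8–21 d before, 2–3 leaf stage, + 0.25% v/v NIS, bottom-watered. Acetone, 187 l/ha track spray, 15–1000 g ai/ha. 0–100 injury score, day 14.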

[2] = tested on: barnyardgrass (Echinochloa crus-galli, ECHCG); assay: as above; conditions: Echinochloa crus-galli, pre-emergence, 336 h, read-out: Pre-emerge Herbicidal Activity ECHCG
Outline: as §1

[3] = tested on: green foxtail (Setaria viridis, SETVI); assay: as above; conditions: Setaria viridis, pre-emergence, 336 h, read-out: Pre-emerge Herbicidal Activity SETVI
Outline: as §1

[4] = tested on: ivyleaf morningglory (Ipomoea hederacea, IPOHE); assay: as above; conditions: Ipomoea, pre-emergence, 336 h, read-out: Pre-emerge Herbicidal Activity IPOHE
Outline: as §1

[5] = tested on: johnsongrass (Sorghum halepense, SORHA); assay: as above; conditions: Sorghum halepense, pre-emergence, 336 h, read-out: Pre-emerge Herbicidal Activity SORHA
Outline: as §1

[6] = tested on: lambsquarters (Chenopodium album, CHEAL); assay: as above; conditions: Chenopodium album, pre-emergence, 336 h, read-out: Pre-emerge Herbicidal Activity CHEAL
Outline: as §1

[7] = tested on: large crabgrass (Digitaria sanguinalis, DIGSA); assay: as above; conditions: Digitaria sanguinalis, pre-emergence, 336 h, read-out: Pre-emerge Herbicidal Activity DIGSA
Outline: as §1

[8] = tested on: sicklepod (Cassia obtusifolia, CASOB); assay: as above; conditions: Senna obtusifolia, pre-emergence, 336 h, read-out: Pre-emerge Herbicidal Activity CASOB
Outline: as §1

[9] = tested on: velvetleaf (Abutilon theophrasti, ABUTH); assay: as above; conditions: Abutilon theophrasti, pre-emergence, 336 h, read-out: Pre-emerge Herbicidal Activity ABUTH
Outline: as §1

[10] = tested on: green foxtail (Setaria viridis, SETVI); assay: Post-emerge test, greenhouse herbicide activity screening; conditions: post-emerge; for phytotoxicity rating SETVI: 14 days after application, rating scale 0-100
Outline: (§2)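 Visual ratings on a 0-100 scale (0 no damage, 100 all plants dead) were taken at 14 days after treatment. Rates of 15-1000 g ai/ha in acetone, 187 l/ha, were sprayed onto soil one day after planting (pre-emerge) or onto 2-3 leaf plants with 0.25% v/v surfactant (post-emerge).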

[11] = tested on: ivyleaf morningglory (Ipomoea hederacea, IPOHE); assay: as above; conditions: post-emerge; for phytotoxicity rating IPOHE: 14 days after application, rating scale 0-100
Outline: as §2

[12] = tested on: johnsongrass (Sorghum halepense, SORHA); assay: as above; conditions: post-emerge; for phytotoxicity rating SORHA: 14 days after application, rating scale 0-100
Outline: as §2

[13] = tested on: large crabgrass (Digitaria sanguinalis, DIGSA); assay: as above; conditions: post-emerge; for phytotoxicity rating DIGSA: 14 days after application, rating scale 0-100
Outline: as §2

[14] = tested on: sicklepod (Cassia obtusifolia, CASOB); assay: as above; conditions: post-emerge; for phytotoxicity rating CASOB: 14 days after application, rating scale 0-100
Outline: as §2

[15] = 63 g ai/ha, phytotoxicity rating 0-100, 14 days after application
[16] = 250 g ai/ha, phytotoxicity rating 0-100, 14 days after application
[17] = pre-emerge, rate 63 g ai/ha, phytotoxicity rating 0-100 at 14 days after application
[18] = pre-emerge, rate 250 g ai/ha, phytotoxicity rating 0-100 at 14 days after application

## COc1c(Cl)cc(F)c(-n2c(=O)cc(C(F)(F)F)n(C)c2=O)c1NC(N)=O [Compound 3-26, 3-(2-aminocarbonylamino-4-chloro-6-fluoro-3-methoxyphenyl)-1-methyl-6-trifluoromethyl-2,4(1H, 3H)-pyrimidinedione]
[1]; [15]
  pest or weed control at 63 g/ha: 80%
[1]; [16]
  pest or weed control at 250 g/ha: 100%
[2]; [15]
  pest or weed control at 63 g/ha: 0%
[2]; [16]
  pest or weed control at 250 g/ha: 30%
[3]; [15]
  pest or weed control at 63 g/ha: 0%
[3]; [16]
  pest or weed control at 250 g/ha: 85%
[4]; [15]
  pest or weed control at 63 g/ha: 50%
[4]; [16]
  pest or weed control at 250 g/ha: 100%
[5]; [15]
  pest or weed control at 63 g/ha: 0%
[5]; [16]
  pest or weed control at 250 g/ha: 50%
[6]; [15]
  pest or weed control at 63 g/ha: 80%
[6]; [16]
  pest or weed control at 250 g/ha: 90%
[7]; [15]
  pest or weed control at 63 g/ha: 0%
[7]; [16]
  pest or weed control at 250 g/ha: 80%
[8]; [15]
  pest or weed control at 63 g/ha: 40%
[8]; [16]
  pest or weed control at 250 g/ha: 90%
[9]; [15]
  pest or weed control at 63 g/ha: 75%
[9]; [16]
  pest or weed control at 250 g/ha: 100%
[10]; 63 g ai/ha
  phytotoxicity rating SETVI: 0
[10]; 250 g ai/ha
  phytotoxicity rating SETVI: 0
[11]; 63 g ai/ha
  phytotoxicity rating IPOHE: 60
[11]; 250 g ai/ha
  phytotoxicity rating IPOHE: 90
[12]; 63 g ai/ha
  phytotoxicity rating SORHA: 0
[12]; 250 g ai/ha
  phytotoxicity rating SORHA: 0
[13]; 63 g ai/ha
  phytotoxicity rating DIGSA: 0
[13]; 250 g ai/ha
  phytotoxicity rating DIGSA: 0
[14]; 63 g ai/ha
  phytotoxicity rating CASOB: 20
[14]; 250 g ai/ha
  phytotoxicity rating CASOB: 60

## Cc1nn(-c2c(N)cc(Cl)cc2F)c(=O)n1C(F)F [Compound 6-22]
[1]; [17]
  pest or weed control at 63 g/ha: 30%
[1]; [18]
  pest or weed control at 250 g/ha: 100%
[2]; [17]
  pest or weed control at 63 g/ha: 0%
[2]; [18]
  pest or weed control at 250 g/ha: 0%
[3]; [17]
  pest or weed control at 63 g/ha: 10%
[3]; [18]
  pest or weed control at 250 g/ha: 50%
[4]; [17]
  pest or weed control at 63 g/ha: 0%
[4]; [18]
  pest or weed control at 250 g/ha: 0%
[5]; [17]
  pest or weed control at 63 g/ha: 0%
[5]; [18]
  pest or weed control at 250 g/ha: 10%
[6]; [17]
  pest or weed control at 63 g/ha: 40%
[6]; [18]
  pest or weed control at 250 g/ha: 100%
[7]; [17]
  pest or weed control at 63 g/ha: 0%
[7]; [18]
  pest or weed control at 250 g/ha: 20%
[8]; [17]
  pest or weed control at 63 g/ha: 0%
[8]; [18]
  pest or weed control at 250 g/ha: 60%
[9]; [17]
  pest or weed control at 63 g/ha: 20%
[9]; [18]
  pest or weed control at 250 g/ha: 100%
[10]; Setaria viridis, post-emergence, 336 h, 63 g ai/ha, phytotoxicity rating 0-100 at 14 days after application, read-out: Post-emerge Herbicidal Activity SETVI
  pest or weed control at 63 g/ha: 0%
[10]; Setaria viridis, post-emergence, 336 h, 250 g ai/ha, phytotoxicity rating 0-100 at 14 days after application, read-out: Post-emerge Herbicidal Activity SETVI
  pest or weed control at 250 g/ha: 0%
[11]; Ipomoea, post-emergence, 336 h, 63 g ai/ha, phytotoxicity rating 0-100 at 14 days after application, read-out: Post-emerge Herbicidal Activity IPOHE
  pest or weed control at 63 g/ha: 20%
[11]; Ipomoea, post-emergence, 336 h, 250 g ai/ha, phytotoxicity rating 0-100 at 14 days after application, read-out: Post-emerge Herbicidal Activity IPOHE
  pest or weed control at 250 g/ha: 70%
[12]; Sorghum halepense, post-emergence, 336 h, 63 g ai/ha, phytotoxicity rating 0-100 at 14 days after application, read-out: Post-emerge Herbicidal Activity SORHA
  pest or weed control at 63 g/ha: 0%
[12]; Sorghum halepense, post-emergence, 336 h, 250 g ai/ha, phytotoxicity rating 0-100 at 14 days after application, read-out: Post-emerge Herbicidal Activity SORHA
  pest or weed control at 250 g/ha: 0%
[13]; Digitaria sanguinalis, post-emergence, 336 h, 63 g ai/ha, phytotoxicity rating 0-100 at 14 days after application, read-out: Post-emerge Herbicidal Activity DIGSA
  pest or weed control at 63 g/ha: 0%
[13]; Digitaria sanguinalis, post-emergence, 336 h, 250 g ai/ha, phytotoxicity rating 0-100 at 14 days after application, read-out: Post-emerge Herbicidal Activity DIGSA
  pest or weed control at 250 g/ha: 0%
[14]; Senna obtusifolia, post-emergence, 336 h, 63 g ai/ha, phytotoxicity rating 0-100 at 14 days after application, read-out: Post-emerge Herbicidal Activity CASOB
  pest or weed control at 63 g/ha: 0%
[14]; Senna obtusifolia, post-emergence, 336 h, 250 g ai/ha, phytotoxicity rating 0-100 at 14 days after application, read-out: Post-emerge Herbicidal Activity CASOB
  pest or weed control at 250 g/ha: 0%
